ChEMBL document CHEMBL1156557, “Structure and biosynthesis of norneolambertellin produced by Lambertella sp. 1346” (Bioorg Med Chem Lett, 2008)
Calls of active or inactive are those of the source. The calls are words filed in the database; no cut-off is given here.

Tests used:
Bipolaris oryzae = assay: Antifungal activity against Cochliobolus miyabeanus at 50 ug/ml; format: functional, organism-based
Monilinia fructigena = assay: Antifungal activity against Monilinia fructigena; format: functional, organism-based

## Cc1cc2c(=O)oc3c(O)cccc3c2oc1=O
Bipolaris oryzae
  Activity: Active
Monilinia fructigena
  Activity: inactive
